pIC50: −log10 of the molar value.
How the values were obtained:
[1] = tested on: Colo205 cells; assay: In vitro proliferation inhibition test on Colo205 tumor cells (CellTiter-Glo); format: cell-based; conditions: Homo sapiens, COLO 205, 72 h; Colo205 cell proliferation, 3 days of culture, CTG
Protocol: The purpose of this experiment is to test the inhibitory activity of the compounds on the proliferation of Colo205 cells (CCL-222, ATCC) in vitro. The cells were treated with different concentrations of compounds in vitro. After 3 days of culture, the cell proliferation was detected using CTG (CellTiter-Glo® Luminescent Cell Viability Assay, Promega, catalog number: G7573) reagent. The in vitro activity of the compounds was evaluated according to the IC50 value.
In the following, taking the in vitro proliferation inhibition test method of Colo205 cells as an example, the method in the present disclosure for testing the in vitro proliferation inhibitory activity of the compounds of the present disclosure is described. This method is also applicable to, but not limited to, the in vitro proliferation inhibitory activity test on other tumor cells.
Colo205 cells were digested, centrifuged and then resuspended. The single cell suspension was mixed well, and the density of viable cells was adjusted to 5.0×10^4 cells/ml with cell culture medium (RPMI1640+2% FBS), and 95 μl/well was added to a 96-well cell culture plate. Only 100 μl medium was added to the peripheral wells of the 96-well plate. The culture plate was incubated in an incubator for 24 hours (37° C., 5% CO2).
The compound was dissolved in DMSO (dimethyl sulfoxide, Shanghai Titan Scientific Co., Ltd.) and prepared into a stock solution with an initial concentration of 20 mM. The initial concentration of the small molecule compound is 2 mM, and then 4-fold diluted into to 9 points, and the tenth point is DMSO. Another 96-well plate was taken, 90 μl of cell culture medium (RPMI1640+2% FBS) was added to each well, then 10 μl of different concentrations of the test sample was added to each well, the mixture was mixed well, and then 5 μl of different concentrations of the test sample was added to the cell culture plate, and each sample has two duplicate holes. The culture plate was incubated in the incubator for 3 days (37° C., 5% CO2). The 96-well cell culture plate was taken out, 50 μl CTG solution was added to each well, and the plate was incubated for 10 minutes at room temperature. In a microplate reader (BMG labtech, PHERAstar FS), chemiluminescence was measured with the microplate reader.
(§1) The data were processed and analyzed with Microsoft Excel, Graphpad Prism 5.

[2] = molecular target: T1, ERK2 (Homo sapiens, UniProt P28482); assay: ERK2 enzyme activity test (ADP-Glo Kinase Assay); format: biochemical; conditions: chemiluminescence
T1 construct: purchased R&D 1230-KS-010
Protocol: (§2) The purpose of this experiment is to detect the inhibitory ability of the compounds on the ERK2 enzyme activity and evaluate the activity of the compounds in vitro according to IC50. The ADP-Glo™ Kinase Assay Kit was used in this experiment. Under the action of enzyme, the substrate was phosphorylated and ADP was produced at the same time. The ADP-Glo Reagent was added to remove unreacted ATP in the reaction system. The kinase detection reagent was used to detect the ADP produced by the reaction. In the presence of the compound, the inhibition rate of the compound was calculated by measuring the signal value.
Enzyme and substrate preparation: ERK2 (1230-KS-010, R&D) and substrate (Custom peptides, Gill Biochemical) were prepared to be 0.75 ng/μl and 1500 μM in the buffer (40 mM Tris, 20 mM MgCl2, 0.1 mg/mL BSA, 50 μM DTT). The enzyme solution and substrate solution were then prepared into a mixed solution at a volume ratio of 2:1 for later use. ATP was diluted to 500 μM with the buffer. The compounds were dissolved in DMSO (dimethyl sulfoxide, Shanghai Titan Scientific Co., Ltd.) to prepare a stock solution with an initial concentration of 20 mM, and then Bravo was used to prepare solutions of the compounds. Finally, a 3 μL of a mixed solution of enzyme and substrate, and 1 μL of different concentrations of the compound (the initial concentration is 50 μM, 4-fold dilution) were added to each well of the 384-well plate, and the plate was incubated at 30° C. for 10 minutes, and finally 1 μL of 500 μM ATP solution was added to each well, and the plate was incubated at 30° C. for 2 hours. Then 5 μL of ADP-Glo was added, and the plate was incubated at 30° C. for 40 minutes. Then 10 μL of Kinase detection buffer was added, and the plate was incubated at 30° C. for 40 minutes. The 384-well plate was taken out and placed in a microplate reader (BMG labtech, PHERAstar FS), and the chemiluminescence was measured by the microplate reader.
as §1

[3] = molecular target: T2, ERK1 (Homo sapiens, UniProt P27361); assay: ERK1 enzyme activity test (ADP-Glo Kinase Assay); format: biochemical; conditions: chemiluminescence
T2 construct: purchased R&D 1879-KS-010
Protocol: as §2, with “ERK1” for “ERK2”
Enzyme and substrate preparation: ERK1 (1879-KS-010, R&D) and substrate (AS-61777, anaspec) were prepared to be 0.75 ng/μl and 100 μM respectively in the buffer. The enzyme solution and substrate solution were then prepared into a mixed solution at a volume ratio of 2:1 for later use. ATP was diluted to 300 μM with the buffer. The compounds were dissolved in DMSO (dimethyl sulfoxide, Shanghai Titan Scientific Co., Ltd.) to prepare a stock solution with an initial concentration of 20 mM, and then Bravo was used to prepare solutions of the compounds. Finally, a 3 μL of a mixed solution of enzyme and substrate, and 1 μL of different concentrations of the compound (the initial concentration is 50 μM, 4-fold dilution) were added to each well of the 384-well plate, and the plate was incubated at 30° C. for 10 minutes, and finally 1 μL of 300 μM ATP solution was added to each well, and the plate was incubated at 30° C. for 2 hours. Then 5 μL of ADP-Glo was added, and the plate was incubated at 30° C. for 40 minutes. Then 10 μL of Kinase detection buffer was added, and the plate was incubated at 30° C. for 40 minutes. The 384-well plate was taken out and placed in a microplate reader (BMG labtech, PHERAstar FS), and the chemiluminescence was measured by the microplate reader.
as §1

[4] = Pharmacokinetics assay in mice; format: in vivo; conditions: mouse, po, C57 mice (female), intragastric, 2 mg/kg, plasma
Protocol: Mice were used as the test animal. The drug concentration in plasma at different time points was determined by LC/MS/MS method after administration of compound 3-P2, compound 4-P2, compound 9-P2, compound 10-P2, compound 12 and compound 15. The pharmacokinetic behavior of the compounds of the present disclosure in mice was studied, and the pharmacokinetic characteristics were evaluated.
54 of C57 mice (female) were equally divided into 6 groups, which were purchased from Shanghai Jiesijie Laboratory Animal Co., Ltd., with the animal production license number: SOCK (Shanghai) 2013-0006.
A certain amount of compound was weighted, followed by the addition of 5% volume of DMSO and 5% Tween 80 to dissolve it, then followed by the addition of 90% normal saline to prepare a colorless and clear solution of 0.1 mg/mL.
After an overnight fast, C57 mice were intragastrically administered the test compound at an administration dose of 2 mg/kg and an administration volume of 0.2 ml/10 g.
The mice were intragastrically administered the test compounds. 0.1mL of blood was taken before the administration and at 0.25, 0.5, 1.0, 2.0, 4.0, 6.0, 8.0, 11.0, 24.0 hours after the administration. The blood was placed in a heparinized test tube, and centrifuged at 3500 rpm for 10 minutes. The plasma was separated and stored at −20° C.
The content of the test compound in the plasma of mice after […] administration of the test compound at different concentrations was determined: 25 μl of mouse plasma at each time point after the administration was taken, followed by the addition of 50 μl of the internal standard camptothecin solution (100 ng/mL) and 200 μl of acetonitrile. The resulting solution was vortex-mixed for 5 minutes, and centrifuged for 10 minutes (4000 rpm). 4μl of the supernatant was taken from the plasma samples for LC/MS/MS analysis.

T2 sequence (P27361 whole entry): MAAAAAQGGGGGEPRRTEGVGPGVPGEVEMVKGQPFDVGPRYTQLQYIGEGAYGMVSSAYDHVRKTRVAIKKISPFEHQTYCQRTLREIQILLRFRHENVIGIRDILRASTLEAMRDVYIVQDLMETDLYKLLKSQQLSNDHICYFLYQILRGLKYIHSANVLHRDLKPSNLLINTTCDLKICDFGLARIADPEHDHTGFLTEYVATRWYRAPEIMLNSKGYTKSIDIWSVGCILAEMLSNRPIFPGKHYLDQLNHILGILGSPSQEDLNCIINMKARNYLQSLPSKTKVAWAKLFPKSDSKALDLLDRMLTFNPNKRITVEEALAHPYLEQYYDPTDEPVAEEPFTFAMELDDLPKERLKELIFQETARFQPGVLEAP
T1 sequence (P28482 whole entry): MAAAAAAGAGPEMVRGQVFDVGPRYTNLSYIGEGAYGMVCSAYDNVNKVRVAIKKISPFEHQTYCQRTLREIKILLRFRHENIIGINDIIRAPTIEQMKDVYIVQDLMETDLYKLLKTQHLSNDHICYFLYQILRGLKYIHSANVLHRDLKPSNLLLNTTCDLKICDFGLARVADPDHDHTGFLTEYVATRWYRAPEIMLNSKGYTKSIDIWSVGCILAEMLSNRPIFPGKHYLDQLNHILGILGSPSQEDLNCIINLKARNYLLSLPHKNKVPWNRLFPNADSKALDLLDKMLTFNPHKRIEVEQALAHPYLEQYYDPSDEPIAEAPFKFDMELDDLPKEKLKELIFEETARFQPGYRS

pIC50 [1]: 7.31
pIC50 [2]: 8.52
pIC50 [3]: 8.40
Vd/F ([4]; read-out: Apparent distribution volume Vz/F): 1.76 L/kg
AUC ([4]; read-out: Area under curve AUC): 1830 ng·h/mL
CL/F ([4]; read-out: Clearance CLz/F): 18.2 mL/min/kg
half-life ([4]; read-out: Half Life T1/2 (converted)): 1.11 h
Cmax ([4]; read-out: Plasma Concentration Cmax): 1070 ng/mL
MRT ([4]; read-out: Residence Time MRT): 1.85 h
Structure (SMILES): COc1cc(F)cc([C@@H](CO)NC(=O)[C@@H](C)N2CCc3sc(-c4ccnc(Nc5ccnn5C)n4)cc3C2=O)c1 [Example 15, (R)-N-((S)-1-(3-Fluoro-5-methoxyphenyl)-2-hydroxyethyl)-2-(2-(2-((1-methyl-1H-pyrazol-5-yl)amino)pyrimidin-4-yl)-4-oxo-6,7-dihydrothieno[3,2-c]pyridin-5(4H)-yl)propionamide]

Reference: patent US20220213119A1, “THIENOHETEROCYCLIC DERIVATIVE, PREPARATION METHOD THEREFOR AND MEDICAL USE THEREOF” (Jiangsu Hengrui Medicine Ca, Lid., priority 2019, published 2022)
